Reference: patent publication US20050019341A1, “Tumor antigen” (priority 2001, published 2005)

Experiments:
[1] = test system: OK-CTL (HLA-A2-restricted cytotoxic T-lymphocyte strain); assay: CTL activation test: T2 cells pulsed with peptide co-cultured with OK-CTL, IFN-γ by ELISA; format: cell-based, human; conditions: E/T ratio=10, 18 hours, dose-dependent
Procedure: The T2 cells, pulsed with each peptide in this way, were used as the target cells (T). In addition, the OK-CTL obtained in Example 1 were used as effector cells (E). Target cells amounting to 1×10^4 and effector cells amounting to 1×10^5 were mixed (E/T ratio=10) and incubated for 18 hours. After incubation, 100 μl of supernatant was collected, and IFN-γ was measured by ELISA. The quantity of IFN-γ produced by CTL against T2 cells that were not pulsed with a peptide was taken as the background and subtracted from each measurement value.

HLA-A2+ tumor cells = assay: Peptide-stimulated PBMC of multiple sclerosis patients: recognition of tumor cells (IFN-γ); format: cell-based, human; conditions: PBMC from multiple sclerosis patients
Procedure: (§1) The PBMC were prepared by methods of the art from the blood of three primary brain tumor patients and one metastatic brain tumor patient. The PBMC obtained were stimulated by incubation with each peptide in the same way as in Example 4, and were cultured by the same method as in Example 3 using T2 cells that were pulsed with each corresponding peptide or KNS60 tumor cells as target cells, followed by measuring the quantity of IFN-γ produced. When T2 cells that were pulsed with the peptides were used as target cells, the PBMC was paired with the T2 cells in such a way that the peptide used to stimulate PBMC and the peptide pulsed to T2 cells were the same.
(§2) Among the 13 types of peptide obtained in Example 3, three peptides, P101 (SEQ ID NO: 1), P102 (SEQ ID NO: 2), and P103 (SEQ ID NO: 3), which were derived from clone 8B6, as well as three peptides, P104 (SEQ ID NO: 4), P105 (SEQ ID NO: 5), and P106 (SEQ ID NO: 6), which were derived from clone 2G2, were examined for their ability to induce CTL from PBMC obtained from multiple sclerosis patients having HLA-A2 as the HLA type and healthy subjects, in the same manner as in Example 5.

[2] = test system: PBMC of HLA-A2+ brain tumor patients; targets T2 cells pulsed with corresponding peptide and/or HLA-A2+ tumor cells; assay: Induction of CTL by peptides from PBMC of brain tumor patients (Example 5): IFN-γ production; format: cell-based, human; conditions: Patient Case 4 (brain tumor)
Procedure: as §1

immunoglobulin E (IgE) = assay: ELISA for peptide-specific IgE in serum; format: binding, human; conditions: serum of MS patients
Procedure: The presence of immunoglobulin E (IgE) and immunoglobulin G (IgG) that specifically recognize P102 (SEQ ID NO: 2), P103 (SEQ ID NO: 3), P104 (SEQ ID NO: 4), or P106 (SEQ ID NO: 6) in the serum of a multiple sclerosis patient, a brain tumor patient, and a healthy subject was measured by the enzyme-linked immunosorbent assay (ELISA).
Each aforementioned peptide (20 μg/well) was immobilized in a 96-well Nunc Covalink flat-bottomed plate (Fisher Scientific), using disuccinimidyl suberate (PIERCE), following the product instructions. This plate was blocked with Block Ace (Yukijirushi) and washed with 0.05% Tween20-PBS; a serum or blood plasma sample was diluted with 0.05% Tween20-Block Ace and added to the plate at 100 μl/well. After incubation for 2 hours at 37° C., the plate was washed with 0.05% Tween20-PBS and further incubated for 2 hours at 37° C. with rabbit anti-human IgE antibody (E chain-specific), anti-human IgG antibody (y chain-specific) (DAKO), or anti-human IgG subclass-specific antibody (Zymed Laboratories), each of which were diluted to 1:1000. […] Thereafter, the reaction was stopped by adding 1 M phosphoric acid, and the optical density (OD) at 450 nm was measured. In so doing, peptides derived from EBV, HIV, SART2 (JP-11-318455), or SART3 (Cancer Research, 1999, Volume 59, pp. […]) were used as controls and measured similarly. […]

[3] = test system: PBMC of multiple sclerosis patients; T2 cells pulsed with corresponding peptide; assay: Peptide recognition in PBMC of multiple sclerosis patients (Example 6): IFN-γ production against peptide-pulsed T2 cells; format: cell-based, human; conditions: MS Patient Case 7
Procedure: as §1, §2

IMSRDLVPRI (Designed peptide recognized by HLA-A2-restricted cytotoxic T lymphocytes) [P102, peptide derived from clone 8B6]
recognition by OK-CTL / production of IFN-γ from OK-CTL [1]: enhanced production of IFN-γ from OK-CTL | recognition of tumor cells by peptide-stimulated PBMC (HLA-A2+ tumor cells): did not recognize the tumor cells | production of IFN-γ from PBMC [2]: enhanced production of IFN-γ | IgE that specifically recognizes the peptide (immunoglobulin E (IgE)): is present | production of IFN-γ from PBMC [3]: enhanced production of IFN-γ
